Laboratory results taken from patent US20250162979A1, “P-DIPHENYL COMPOUND DERIVATIVE MIXTURE AND METHOD OF PRODUCING THE SAME” (HODOGAYA CHEMICAL CO., LTD., priority 2021, published 2025).

Experiment: Solubility in organic solvent, checked visually at room temperature
Format: physicochemical
Conditions: room temperature (25±5° C.), stirred 3 to 5 minutes, visual check, % (w/w)

Cc1ccc(N(c2ccccc2)c2ccc(-c3ccc(N(c4ccccc4)c4ccc(C)cc4)cc3)cc2)cc1 [A-1, 4,4′-bis(4-methyldiphenylamino)-p-diphenyl]
Solubility in THF (10 g tetrahydrofuran): 49.9%
Solubility in toluene (10 g toluene): 24.2%
